# Results from patent US8697081B2, “Method of modulating neovascularization” (The Regents of the University of Michigan, priority 2008, dated 2014).
# What was measured:
# [1] = system: Human umbilical vein endothelial cells; test: Atomic force microscopy micro-indentation of pericellular ECM rigidity; type: cell-based; conditions: VEGF/HGF-stimulated, fibrin gels
# Protocol: Since ECM rigidity regulates cytoskeletal remodeling and force generation, and consequently cell function (Engler et al., 2006. Cell, 126: 677-689; Wozniak and Chen, supra; Zajac and Discher, 2008. Curr. Opin. Cell Biol., 20: 609-615), atomic force microscopy micro-indentation (AFM) was employed to quantify endothelial cell-dependent changes in ECM remodeling. AFM was performed by first washing fibrin gels with phosphate buffered saline (PBS) after removing culture medium. Samples were mechanically characterized using an Asylum MFP-3D atomic force microscope (Asylum Research, Santa Barbara, Calif.). Micro-indentation was performed using a sphere-tipped probe (Novascan, Ames, Iowa) with a sphere diameter of 5 μm and a nominal spring constant of ˜60 pN/nm. The cantilever spring constant was confirmed by thermal fluctuation method (Thundat et al., 1994. Applied Physics Letters, 64: 2894-2896). The AFM system was calibrated by following the manufacturer's recommended procedure before each indentation measurement. AFM micro-indentation was performed in PBS solution at room temperature. Individual force-indentation profile was acquired at an indentation rate of 2 μm/s using deflection trigger mode with a trigger value of 200 nm. […] Shear modulus at each position was calculated from fitting force-indentation data using a Hertz sphere model (Richert et al., 2004, Biomacromolecules, 5: 1908-1916).
# human endothelial cells = test: Cell morphology, migration and cell number of endothelial cells in 3-D fibrin gel; type: cell-based; conditions: 2 days, 50 μM blebbistatin
# Protocol: Endothelial cells were isolated from human umbilical cord veins by collagenase digestion and cultured in Medium 199 (Gibco) containing 20% human serum, 50 μg/ml endothelial cell growth supplement (BD Biosciences), 100 U/ml penicillin, and 100 μg/ml streptomycin (Hiraoka et al. 1998. Cell, 95(3): 365-377). […]
# The effect of Fn matrix assembly, or lack thereof, on endothelial cell function during neovascularization was assessed. […]
# (Chernousov et al. 1991. J. Biol. Chem., 266(17): 10851-10858; Tomasini-Johansson et al. 2001. J. Biol. Chem., 276(26): 23430-23439; Mao and Schwarzbauer. 2005. Matrix Biol., 24(6): 389-399; and Tomasini-Johansson et al. 2006. Matrix Biol., 25(5): 282-293). […] Cell number in 3-D cultures was determined by hemacytometry after dissolving gels with 2 mg/ml bacterial collagenase (Worthington) while the number of patent tubules was determined in randomly selected cross-sections. Fn matrix assembly and cell morphology were monitored by confocal laser microscopy. To examine cell migration, endothelial cells were embedded in a 100 μl fibrin gel for 2 hours, then placed within a 500 μl gel for 8 days in the presence of Del29, FUD, control IgG, or L8, after which migration from the inner gel was assessed. […]
# [2] = system: β-actin, α-actinin, and MLC2; test: Western blot with semi-quantitative densitometry of cytoskeletal proteins; type: cell-based, human; conditions: 3-D fibrin gel
# Source text: Tractional forces exerted at cell-matrix adhesion sites require the activation of an actinomyosin motor complex whose assembly is tightly linked to actin cytoskeleton organization, non-muscle myosin II isoform expression, and the rigidity of the surrounding substratum (Meshel et al. 2005. Nat. Cell Biol., 7(2): 157-164; Engler, supra; and Even-Ram, supra; Yoneda et al. 2007. Mol. Cell. Biol., 19(1): 66-75). β-actin, α-actinin, myosin light chain-2 (MLC2), and non-muscle myosin IIA and IIB isoform (NMMIIA and NMMIIB, respectively) protein levels were monitored in 3-D embedded endothelial cells to determine the effect of Fn matrix inhibition on the expression of gene products critical to the generation of tractional forces. Endothelial cells were cultured in 3-D fibrin gels for 2 days with either the FUD peptide or the control Del29 peptide. Levels of β-actin, α-actinin, NMMIIA, NMMIIB, and MLC2 were measured by Western blot, with ERK1/2 serving as the loading control. As assessed by semi-quantitative densitometry, the levels of β-actin, actinin and MLC2 were 58±7% (n=5; mean±1 SD), 62% (n=2), and 60±12% (n=3; mean±1 SD) of control, respectively.
Molecule,3-D pericellular rigidity (shear modulus by AFM) [1],cell shape change (human endothelial cells),"level of actinin ([2]; 2 days, control Del29 peptide, n=2)","level of MLC2 ([2]; 2 days, control Del29 peptide, n=3, mean±1 SD)","level of β-actin ([2]; 2 days, control Del29 peptide, n=5, mean±1 SD)","levels of β-actin, α-actinin, and MLC2 ([2]; growth factor-stimulated)"
CNC(=O)[C@H](Cc1c[nH]c2ccccc12)NC(=O)[C@@H](CC(=O)NO)CC(C)C [GM6001],significantly lower,–,–,–,–,–
Cc1ccc2c(c1)C(=O)C1(O)CCN(c3ccccc3)C1=N2 (stereo not shown) [blebbistatin],–,failed to undergo,–,–,–,–
"FUD: 49-residue functional upstream domain of Streptococcus pyogenes F1 adhesion protein, SEQ ID NO: 10; fibronectin fibril assembly inhibitor (KDQSPLAGESGETEYITEVYGNQQNPVDIDKKLPNETGFSGNMVETEDT; Streptococcus pyogenes; Functional Upstream Domain (FUD) of F1 adhesion protein)",significantly lower,–,62 % of control,60±12 % of control,58±7 % of control,markedly reduced
